{"source": "paper PMC4184702", "about": "(Pharmacology Research & Perspectives, 2014)", "key": {"[1]": {"target": "T1, 5-HT1A (Homo sapiens, UniProt P08908)", "T1 construct": "purchased NIMH Psychoactive Drug Screening Program (PDSP)", "T1 sequence (P08908 whole entry)": "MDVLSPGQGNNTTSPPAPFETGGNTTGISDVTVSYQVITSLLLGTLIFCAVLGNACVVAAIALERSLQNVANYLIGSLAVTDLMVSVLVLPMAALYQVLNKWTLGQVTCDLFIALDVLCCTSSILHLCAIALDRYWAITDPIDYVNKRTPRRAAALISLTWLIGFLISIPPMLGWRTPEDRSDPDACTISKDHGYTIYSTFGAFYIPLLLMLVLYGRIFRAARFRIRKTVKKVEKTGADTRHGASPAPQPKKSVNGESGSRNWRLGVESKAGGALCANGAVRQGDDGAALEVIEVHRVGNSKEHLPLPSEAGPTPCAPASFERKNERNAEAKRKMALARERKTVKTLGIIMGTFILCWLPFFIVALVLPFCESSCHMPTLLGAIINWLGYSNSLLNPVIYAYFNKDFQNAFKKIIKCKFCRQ", "test": "PDSP primary binding, 5-HT1A", "details": "n = 4, read-out: Inhibition (primary binding competition efficacy), 5-HT1A", "procedure": "(§1) For experimental details, please refer to the Psychoactive Drug Screening Program (PDSP) web site http://pdsp.med.unc.edu/.\n(§2) ^a The default concentration for primary binding experiments is 10 µM (n = 4). ^b Negative inhibition represents a stimulation of binding. ^c BZPR: Benzodiazepine Receptors (rat brain site). ^d DOR: Delta Opioid Receptor; KOR: Kappa Opioid Receptor; MOR: Mu Opioid Receptor. ^e DAT: Dopamine Transporter; NET: Norepinephrine Transporter; SERT: Serotonin Transporter. ^f NMDA: N-methyl-D-aspartate receptor."}, "[2]": {"target": "T2, 5-HT2B (Homo sapiens, UniProt P41595)", "T2 construct": "purchased NIMH Psychoactive Drug Screening Program (PDSP)", "T2 sequence (P41595 whole entry)": "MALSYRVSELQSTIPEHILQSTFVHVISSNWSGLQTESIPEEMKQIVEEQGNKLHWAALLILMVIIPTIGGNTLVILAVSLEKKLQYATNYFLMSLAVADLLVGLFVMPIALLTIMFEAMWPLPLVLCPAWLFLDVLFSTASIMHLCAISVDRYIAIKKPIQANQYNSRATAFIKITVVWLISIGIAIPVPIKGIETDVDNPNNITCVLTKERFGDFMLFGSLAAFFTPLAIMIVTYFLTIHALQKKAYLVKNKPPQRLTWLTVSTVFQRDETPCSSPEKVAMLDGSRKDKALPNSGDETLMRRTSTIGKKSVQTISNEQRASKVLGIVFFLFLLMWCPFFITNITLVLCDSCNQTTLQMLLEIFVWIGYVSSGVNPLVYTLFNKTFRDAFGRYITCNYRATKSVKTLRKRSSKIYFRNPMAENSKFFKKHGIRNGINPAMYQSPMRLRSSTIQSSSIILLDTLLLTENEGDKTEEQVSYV", "test": "PDSP primary binding, 5-HT2B", "details": "n = 4, read-out: Inhibition (primary binding competition efficacy), 5-HT2B", "procedure": "as §1, §2"}, "[3]": {"target": "T3, V1A (Homo sapiens, UniProt P37288)", "T3 construct": "purchased NIMH Psychoactive Drug Screening Program (PDSP)", "T3 sequence (P37288 whole entry)": "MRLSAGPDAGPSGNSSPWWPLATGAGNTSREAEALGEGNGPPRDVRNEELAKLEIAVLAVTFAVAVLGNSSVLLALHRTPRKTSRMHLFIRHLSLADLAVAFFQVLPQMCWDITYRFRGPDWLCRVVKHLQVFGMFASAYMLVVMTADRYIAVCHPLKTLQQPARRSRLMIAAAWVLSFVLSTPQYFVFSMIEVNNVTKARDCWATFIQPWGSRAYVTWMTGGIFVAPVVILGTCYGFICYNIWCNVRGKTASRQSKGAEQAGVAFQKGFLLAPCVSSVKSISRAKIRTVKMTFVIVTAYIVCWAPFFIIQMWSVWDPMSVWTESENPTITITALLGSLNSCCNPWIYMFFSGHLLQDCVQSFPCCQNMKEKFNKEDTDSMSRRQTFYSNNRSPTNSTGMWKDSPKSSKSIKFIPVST", "test": "PDSP primary binding, V1A", "details": "n = 4, read-out: Inhibition (primary binding competition efficacy), V1A", "procedure": "as §1, §2"}, "[4]": {"tested_on": "51 other CNS neurotransmitter receptors and transporters", "test": "Broad-range screening (PDSP), summary", "type": "binding", "details": "10 μmol/L", "procedure": "as §1, §2"}, "[5]": {"tested_on": "Male C57 BL6 mice", "test": "SmartCube test", "type": "in vivo, mouse", "procedure": "Male C57 BL6 mice (Taconic Farms) were used in the SmartCube® assay (PsychoGenics Inc., Tarrytown, NY). Mice were received at 7 weeks old and group-housed in OptiMICE ventilated cages with four mice/cage. Mice were acclimated to the colony room for at least 1 week prior to the first injections. All animals were tested in SmartCube® at 8 10 weeks old.\nTo acquire initial in vivo evaluation of our nicotinic ligands for behavioral effects relevant to psychiatric diseases, we used SmartCube®, an automated system in which mouse behavior is captured by digital video using novel, proprietary hardware that presents multiple challenges in a single test session and is analyzed with computer algorithms. Digital videos of the subjects are processed with computer vision algorithms to extract more than 1400 dependent measures including frequency and duration of behavioral states such as grooming, rearing, etc., and many other features obtained during the test session. Using machine learning techniques chosen to best separate pharmacological effects of reference compounds, the behavioral signatures of the mutant mice are then assessed quantitatively.\nThe most dominant of the features collected that define the drug class signature are identified and ranked using complex proprietary bioinformatics algorithms. The outcome of a SmartCube® run is a set of more than 1400 features (behavioral parameters) that can be used for various analyses. Many of these features are correlated (e.g., rearing counts and supported rearing counts). Therefore, we form statistically independent combinations of the original features (further referred to as decorrelated features) that discriminate between the groups more effectively. Next, we apply a proprietary feature ranking algorithm to score each feature discrimination power to weight each feature change by its relevance. The data obtained in this way are used to define drug signatures for known reference compounds and to establish therapeutic class signatures against which a test sample can be compared. The neuropharmacological effects of a test compound can be predicted by similarity to major classes of compounds, such as antipsychotics, anxiolytics, and antidepressants (Roberds et al. [2011]).\nMice are taken in their home cage to the SmartCube® suite of experimental rooms where they remain until they are placed in the apparatus for a single testing session. A standard SmartCube® protocol runs for a single session (∼45 min). After the session mice are group-housed again and brought back to the colony room. Any abnormal behavior is noted. […] At least 12 mice were used in each treatment group."}, "[6]": {"tested_on": "CYP3A", "test": "CYP3A inhibition, HLM, midazolam substrate", "type": "in vitro ADME, human", "details": "1.0E-05 M", "source_text": "(§3) Supplement prp20002-e00026-sd1.doc, table 3: Table 3."}, "[7]": {"tested_on": "Balb/CJ mice", "test": "Acute toxicity / mortality in Balb/C mice", "details": "300 mg/kg, wild-type Balb/CJ mice"}, "[8]": {"target": "T4, SERT: Serotonin Transporter (Homo sapiens, UniProt P31645)", "T4 construct": "purchased NIMH Psychoactive Drug Screening Program (PDSP)", "T4 sequence (P31645 whole entry)": "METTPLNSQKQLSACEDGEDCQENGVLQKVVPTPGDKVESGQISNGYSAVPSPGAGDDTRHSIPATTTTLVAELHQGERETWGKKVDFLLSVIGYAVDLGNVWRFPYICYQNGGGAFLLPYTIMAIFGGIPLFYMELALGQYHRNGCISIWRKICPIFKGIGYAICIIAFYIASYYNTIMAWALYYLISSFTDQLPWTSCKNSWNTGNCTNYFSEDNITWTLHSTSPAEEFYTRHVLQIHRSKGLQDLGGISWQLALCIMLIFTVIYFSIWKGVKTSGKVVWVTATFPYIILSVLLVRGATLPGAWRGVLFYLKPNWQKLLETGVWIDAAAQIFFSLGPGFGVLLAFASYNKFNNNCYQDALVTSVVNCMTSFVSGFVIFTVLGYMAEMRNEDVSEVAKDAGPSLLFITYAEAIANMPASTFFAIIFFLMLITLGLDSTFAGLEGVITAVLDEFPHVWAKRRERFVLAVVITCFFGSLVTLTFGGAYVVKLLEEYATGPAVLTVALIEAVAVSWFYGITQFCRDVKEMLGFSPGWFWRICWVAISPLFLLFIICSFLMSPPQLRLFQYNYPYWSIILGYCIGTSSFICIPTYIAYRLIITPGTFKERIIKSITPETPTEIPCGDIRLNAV", "test": "PDSP primary binding, SERT", "details": "n = 4, read-out: Inhibition (primary binding competition efficacy), SERT", "procedure": "as §1, §2"}, "[9]": {"target": "T5, 5-HT1B (Homo sapiens, UniProt P28222)", "T5 construct": "purchased NIMH Psychoactive Drug Screening Program (PDSP)", "T5 sequence (P28222 whole entry)": "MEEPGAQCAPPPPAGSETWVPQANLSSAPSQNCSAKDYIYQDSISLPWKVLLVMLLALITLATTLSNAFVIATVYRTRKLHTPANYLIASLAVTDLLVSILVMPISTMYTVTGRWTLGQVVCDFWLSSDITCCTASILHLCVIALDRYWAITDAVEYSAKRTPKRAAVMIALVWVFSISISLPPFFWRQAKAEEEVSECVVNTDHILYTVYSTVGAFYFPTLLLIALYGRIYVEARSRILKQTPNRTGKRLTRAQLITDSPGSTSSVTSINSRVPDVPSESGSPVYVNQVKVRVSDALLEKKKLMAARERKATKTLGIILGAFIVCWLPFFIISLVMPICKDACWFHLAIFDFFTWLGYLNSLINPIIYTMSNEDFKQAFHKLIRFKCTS", "test": "PDSP primary binding, 5-HT1B", "details": "n = 4, negative inhibition = stimulation of binding, read-out: Inhibition (primary binding competition efficacy), 5-HT1B", "procedure": "as §1, §2"}, "[10]": {"tested_on": "strain TA98", "test": "Ames test, strain TA98", "type": "cell-based"}, "[11]": {"target": "T6, 5-HT1D (Homo sapiens, UniProt P28221)", "T6 construct": "purchased NIMH Psychoactive Drug Screening Program (PDSP)", "T6 sequence (P28221 whole entry)": "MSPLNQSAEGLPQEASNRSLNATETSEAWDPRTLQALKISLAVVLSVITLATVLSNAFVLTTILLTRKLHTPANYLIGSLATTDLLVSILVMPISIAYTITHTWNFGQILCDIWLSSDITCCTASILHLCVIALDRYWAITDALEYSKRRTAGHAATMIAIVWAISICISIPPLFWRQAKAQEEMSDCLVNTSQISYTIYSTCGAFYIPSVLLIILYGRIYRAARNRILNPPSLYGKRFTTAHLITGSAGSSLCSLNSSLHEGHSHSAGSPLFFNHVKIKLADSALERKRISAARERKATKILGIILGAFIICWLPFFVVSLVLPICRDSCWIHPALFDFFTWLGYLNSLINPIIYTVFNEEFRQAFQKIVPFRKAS", "test": "PDSP primary binding, 5-HT1D", "details": "n = 4, read-out: Inhibition (primary binding competition efficacy), 5-HT1D", "procedure": "as §1, §2"}, "[12]": {"tested_on": "BZPR: Benzodiazepine Receptors (rat brain site)", "test": "PDSP primary binding, BZPR", "details": "10 µM, n = 4", "procedure": "as §1, §2"}, "[13]": {"tested_on": "strain TA1535", "test": "Ames test, strain TA1535", "type": "cell-based"}, "[14]": {"target": "T7, CYP2C19 (Homo sapiens, UniProt P33261)", "T7 construct": "from tissue; host or cells: human liver microsomes (HLM)", "T7 sequence (P33261 whole entry)": "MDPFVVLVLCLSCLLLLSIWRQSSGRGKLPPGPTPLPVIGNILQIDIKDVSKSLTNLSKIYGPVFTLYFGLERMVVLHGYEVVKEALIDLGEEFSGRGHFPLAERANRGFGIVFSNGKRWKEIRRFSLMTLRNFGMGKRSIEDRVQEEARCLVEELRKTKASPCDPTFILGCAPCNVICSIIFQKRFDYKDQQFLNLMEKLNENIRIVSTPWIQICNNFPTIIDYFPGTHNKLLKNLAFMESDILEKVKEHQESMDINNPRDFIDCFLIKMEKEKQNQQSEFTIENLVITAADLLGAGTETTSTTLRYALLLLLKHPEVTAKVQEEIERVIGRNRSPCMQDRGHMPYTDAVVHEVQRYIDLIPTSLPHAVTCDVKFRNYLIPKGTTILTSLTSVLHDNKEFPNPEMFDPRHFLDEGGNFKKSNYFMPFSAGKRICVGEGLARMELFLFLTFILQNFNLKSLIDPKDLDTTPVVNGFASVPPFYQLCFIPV", "test": "CYP2C19 inhibition, HLM, omeprazole substrate", "type": "in vitro ADME", "details": "1.0E-05 M", "source_text": "as §3"}, "[15]": {"target": "T8, β1 adrenergic receptor (Homo sapiens, UniProt P08588)", "T8 construct": "purchased NIMH Psychoactive Drug Screening Program (PDSP)", "T8 sequence (P08588 whole entry)": "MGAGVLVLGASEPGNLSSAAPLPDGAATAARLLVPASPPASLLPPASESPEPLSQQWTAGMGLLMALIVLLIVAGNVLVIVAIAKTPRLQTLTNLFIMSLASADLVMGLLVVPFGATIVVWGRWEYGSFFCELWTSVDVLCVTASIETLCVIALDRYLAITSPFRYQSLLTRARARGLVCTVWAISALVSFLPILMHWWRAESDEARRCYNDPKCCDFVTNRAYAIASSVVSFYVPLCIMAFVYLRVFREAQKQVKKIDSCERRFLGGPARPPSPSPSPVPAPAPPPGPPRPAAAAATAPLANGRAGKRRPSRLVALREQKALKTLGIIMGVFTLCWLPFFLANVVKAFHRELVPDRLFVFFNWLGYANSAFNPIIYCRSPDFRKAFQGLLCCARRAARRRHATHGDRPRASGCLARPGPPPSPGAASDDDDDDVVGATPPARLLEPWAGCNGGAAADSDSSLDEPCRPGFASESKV", "test": "PDSP primary binding, β1", "details": "n = 4, read-out: Inhibition (primary binding competition efficacy), β1", "procedure": "as §1, §2"}, "[16]": {"target": "T9, D5 dopamine receptor (Homo sapiens, UniProt P21918)", "T9 construct": "purchased NIMH Psychoactive Drug Screening Program (PDSP)", "T9 sequence (P21918 whole entry)": "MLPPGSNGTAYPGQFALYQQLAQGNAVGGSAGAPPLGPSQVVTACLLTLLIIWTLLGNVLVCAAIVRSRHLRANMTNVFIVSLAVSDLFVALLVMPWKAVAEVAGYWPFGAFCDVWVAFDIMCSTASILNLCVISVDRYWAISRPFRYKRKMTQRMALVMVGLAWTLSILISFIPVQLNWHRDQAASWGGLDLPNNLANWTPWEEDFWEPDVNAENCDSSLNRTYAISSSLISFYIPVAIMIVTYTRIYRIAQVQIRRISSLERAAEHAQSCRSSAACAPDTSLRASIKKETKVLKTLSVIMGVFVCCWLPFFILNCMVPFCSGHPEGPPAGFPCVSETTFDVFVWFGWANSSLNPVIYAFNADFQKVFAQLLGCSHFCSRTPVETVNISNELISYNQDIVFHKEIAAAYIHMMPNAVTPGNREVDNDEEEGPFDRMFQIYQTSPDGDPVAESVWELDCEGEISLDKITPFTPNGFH", "test": "PDSP primary binding, D5", "details": "n = 4, read-out: Inhibition (primary binding competition efficacy), D5", "procedure": "as §1, §2"}, "[17]": {"target": "T10, D2 dopamine receptor (Homo sapiens, UniProt P14416)", "T10 construct": "purchased NIMH Psychoactive Drug Screening Program (PDSP)", "test": "PDSP primary binding, D2", "details": "n = 4, read-out: Inhibition (primary binding competition efficacy), D2", "procedure": "as §1, §2"}, "[18]": {"target": "T11, β2 adrenergic receptor (Homo sapiens, UniProt P07550)", "T11 construct": "purchased NIMH Psychoactive Drug Screening Program (PDSP)", "T11 sequence (P07550 whole entry)": "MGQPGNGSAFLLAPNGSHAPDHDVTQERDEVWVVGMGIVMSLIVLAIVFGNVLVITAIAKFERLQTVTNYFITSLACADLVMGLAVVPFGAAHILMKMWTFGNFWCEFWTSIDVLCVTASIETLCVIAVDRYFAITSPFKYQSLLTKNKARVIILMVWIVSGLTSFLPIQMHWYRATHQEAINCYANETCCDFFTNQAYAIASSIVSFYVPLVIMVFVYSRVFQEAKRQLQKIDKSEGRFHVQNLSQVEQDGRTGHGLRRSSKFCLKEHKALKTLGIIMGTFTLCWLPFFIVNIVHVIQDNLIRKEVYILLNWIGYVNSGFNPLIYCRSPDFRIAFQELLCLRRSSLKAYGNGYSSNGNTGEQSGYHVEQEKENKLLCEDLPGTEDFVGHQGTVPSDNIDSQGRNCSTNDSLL", "test": "PDSP primary binding, β2", "details": "n = 4, read-out: Inhibition (primary binding competition efficacy), β2", "procedure": "as §1, §2"}, "[19]": {"details": "with or without S9, 5, 10, 50, or 100 μmol/L"}}, "note": "“Also recorded” adds a separate entry of the source.", "data": [{"molecule": "OCCc1cc(-c2cncc(OC[C@@H]3CCN3)c2)on1", "note": "[LF-3-88, 2-[5-[5-(2(S)-azetidinylmethoxyl)-3-pyridyl]-3-isoxazolyl]ethanol]", "values": [{"measurement": "inhibition at 10 µM", "setting": "[1]", "result": 4.2, "unit": "%"}, {"measurement": "inhibition at 10 µM", "setting": "[2]", "result": 7.9, "unit": "%"}, {"measurement": "inhibition at 10 µM", "setting": "[3]", "result": 24.7, "unit": "%"}, {"measurement": "inhibition across 51 other CNS neurotransmitter receptors and transporters", "setting": "[4]", "result": "≤ 50", "unit": "%"}, {"measurement": "SmartCube antidepressant (green) component", "setting": "[5]; 5 and 10 mg/kg, i.p.", "result": "antidepressive-like behavioral signatures; also recorded: potential antidepressive-like behavior; also recorded: most pronounced"}, {"measurement": "SmartCube side effects", "setting": "[5]; 5 and 10 mg/kg, i.p.", "result": "Minimal side effects"}, {"measurement": "SmartCube side effect signature", "setting": "[5]; both tested doses (5 and 10 mg/kg)", "result": "less than 10%"}, {"measurement": "SmartCube behavioral signature", "setting": "[5]; both tested doses, i.p., 15 min preinjection", "result": "robust CNS drug-like signatures"}, {"measurement": "CYP3A Inhibition", "setting": "[6]", "result": 1, "unit": "%"}, {"measurement": "mortality", "setting": "[7]", "result": "no mortality"}, {"measurement": "inhibition at 10 µM", "setting": "[8]", "result": -0.2, "unit": "%"}, {"measurement": "inhibition at 10 µM", "setting": "[9]", "result": -7.9, "unit": "%"}, {"measurement": "Ames test Result", "setting": "[10]; strain TA98 + S9, 1.0E-04 M", "result": "Negative"}, {"measurement": "Ames test Result", "setting": "[10]; strain TA98 + S9, 1.0E-05 M", "result": "Negative"}, {"measurement": "Ames test Result", "setting": "[10]; strain TA98 + S9, 5.0E-05 M", "result": "Negative"}, {"measurement": "Ames test Result", "setting": "[10]; strain TA98 + S9, 5.0E-06 M", "result": "Negative"}, {"measurement": "Ames test Result", "setting": "[10]; strain TA98 – S9, 1.0E-04 M", "result": "Negative"}, {"measurement": "Ames test Result", "setting": "[10]; strain TA98 – S9, 1.0E-05 M", "result": "Negative"}, {"measurement": "Ames test Result", "setting": "[10]; strain TA98 – S9, 5.0E-05 M", "result": "Negative"}, {"measurement": "Ames test Result", "setting": "[10]; strain TA98 – S9, 5.0E-06 M", "result": "Negative"}, {"measurement": "mutagenic potential (Ames), TA98", "setting": "[10]; [19]", "result": "negative"}, {"measurement": "inhibition at 10 µM", "setting": "[11]", "result": -14.9, "unit": "%"}, {"measurement": "Inhibition (primary binding competition efficacy), BZPR", "setting": "[12]", "result": 6.7, "unit": "%"}, {"measurement": "Ames test Result", "setting": "[13]; strain TA1535 + S9, 1.0E-04 M", "result": "Negative"}, {"measurement": "Ames test Result", "setting": "[13]; strain TA1535 + S9, 1.0E-05 M", "result": "Negative"}, {"measurement": "Ames test Result", "setting": "[13]; strain TA1535 + S9, 5.0E-05 M", "result": "Negative"}, {"measurement": "Ames test Result", "setting": "[13]; strain TA1535 + S9, 5.0E-06 M", "result": "Negative"}, {"measurement": "Ames test Result", "setting": "[13]; strain TA1535 – S9, 1.0E-04 M", "result": "Negative"}, {"measurement": "Ames test Result", "setting": "[13]; strain TA1535 – S9, 1.0E-05 M", "result": "Negative"}, {"measurement": "Ames test Result", "setting": "[13]; strain TA1535 – S9, 5.0E-05 M", "result": "Negative"}, {"measurement": "Ames test Result", "setting": "[13]; strain TA1535 – S9, 5.0E-06 M", "result": "Negative"}, {"measurement": "mutagenic potential (Ames), TA1535", "setting": "[13]; [19]", "result": "negative"}, {"measurement": "CYP2C19 Inhibition", "setting": "[14]", "result": 10, "unit": "%"}, {"measurement": "inhibition at 10 µM", "setting": "[15]", "result": 1.7, "unit": "%"}, {"measurement": "inhibition at 10 µM", "setting": "[16]", "result": 5.8, "unit": "%"}, {"measurement": "inhibition at 10 µM", "setting": "[17]", "result": 17.2, "unit": "%"}, {"measurement": "inhibition at 10 µM", "setting": "[18]", "result": 6.8, "unit": "%"}]}]}
